Assay results as given in patent publication KR20210110252A, “폴리펩티드를 포함하는 비알코올성 지방간 질환의 예방 또는 치료용 약학 조성물” (㈜ 디앤디파마텍, priority 2019, dated 2021).
Where no end group is shown, it is not given here. [ ]: non-standard residue; d: D form. Aib = CC(C)(N)C(=O)O

How the values were obtained:
[1] = system: C57BL/6 마우스, high fat diet NAFLD model; test: In vivo activity 1: NAFLD model, C57BL/6 mice on 60% high fat diet for about 24 weeks; parameters: species or system mouse; conditions: 20 nmol/kg s.c. every second day for 2 weeks; also lower than liraglutide 100 nmol/kg daily
[2] = target: GLP-1 수용체 (GLP-1 receptor) (Homo sapiens, UniProt P43220); conditions: read-out: GLP-1의 수용체 EC50; HEK293/CRE-Luc cells with human GLP-1 receptor; 4 h at 37℃; luciferase reporter for cAMP
[3] = system: C57BL/6 마우스, high trans-fat diet NAFLD model; test: In vivo activity 2 and 3: NAFLD model, C57BL/6 mice on high trans-fat diet (40% fat, 20% fructose, 2% cholesterol) for about 16 weeks; parameters: species or system mouse; conditions: 20 nmol/kg s.c. every third day for 4 weeks; also lower than liraglutide 53 nmol/kg daily
글루카곤 수용체(GCGR) = target: T1, 글루카곤 수용체(GCGR) (Homo sapiens, UniProt P47871); test: Glucagon receptor activity, cAMP Hunter eXpress GCGR CHO-K1 GPCR assay; assay type: cell-based; conditions: CHO-K1 cells with human glucagon receptor; 30 min at 37℃; cAMP production
T1 construct: host or cells: CHO-K1
T1 sequence (P47871 26-477): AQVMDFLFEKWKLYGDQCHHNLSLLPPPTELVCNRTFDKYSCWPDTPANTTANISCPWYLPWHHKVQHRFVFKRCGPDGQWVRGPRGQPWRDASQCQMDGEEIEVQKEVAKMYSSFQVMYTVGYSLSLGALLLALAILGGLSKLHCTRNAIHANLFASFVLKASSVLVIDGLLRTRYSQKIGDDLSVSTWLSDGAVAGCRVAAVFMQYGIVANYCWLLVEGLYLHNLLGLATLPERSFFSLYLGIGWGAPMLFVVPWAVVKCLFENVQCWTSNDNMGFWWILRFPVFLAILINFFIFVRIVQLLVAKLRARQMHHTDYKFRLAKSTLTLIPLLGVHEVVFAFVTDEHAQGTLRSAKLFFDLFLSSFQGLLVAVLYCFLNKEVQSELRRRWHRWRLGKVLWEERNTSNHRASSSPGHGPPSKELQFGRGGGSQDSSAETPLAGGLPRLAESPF

Sequence of GLP-1 수용체 (GLP-1 receptor) (P43220 24-463): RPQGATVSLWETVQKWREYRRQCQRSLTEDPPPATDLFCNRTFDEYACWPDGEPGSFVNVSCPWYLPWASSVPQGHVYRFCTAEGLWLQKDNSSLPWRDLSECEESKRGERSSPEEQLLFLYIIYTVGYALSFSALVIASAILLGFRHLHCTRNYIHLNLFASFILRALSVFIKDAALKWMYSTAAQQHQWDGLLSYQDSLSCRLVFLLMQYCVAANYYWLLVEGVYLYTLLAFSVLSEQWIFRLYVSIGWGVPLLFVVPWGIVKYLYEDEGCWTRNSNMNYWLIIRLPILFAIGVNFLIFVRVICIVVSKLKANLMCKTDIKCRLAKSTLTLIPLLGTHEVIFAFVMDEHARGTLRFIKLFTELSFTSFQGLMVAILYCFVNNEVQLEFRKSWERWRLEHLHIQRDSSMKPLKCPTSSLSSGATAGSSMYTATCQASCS

## 실시예 2: 서열번호 2 H(Aib)QGTFTSDYSKYLDEQAAKEFVQWLMNTC polypeptide conjugated to 3중 가지형 mPEG-MAL(MW: 50 kDa) (H[Aib]QGTFTSDYSKYLDEQAAKEFVQWLMNTC; numbers in words are those of the source; also: conjugated to 3-branched mPEG-MAL 50 kDa, site not given here)
[1]
  Liver steatosis, H&E histology vs PBS-treated group (Fig. 5): 현저하게 감소
  Liver weight vs PBS-treated group (Fig. 4): 유의적으로 감소
  Serum cholesterol level vs PBS-treated group (Fig. 3): 유의적으로 감소
[2]
  EC50: 2.12 nM
[3]
  Hepatic triglyceride vs vehicle group (Fig. 8): 유의적으로 감소
  Liver steatosis, H&E and oil-red-O histology vs vehicle group (Fig. 9): 현저하게 감소
  Liver weight vs vehicle group (Fig. 7): 유의적으로 감소
  NAFLD activity score (NAS) vs vehicle group (Fig. 10): 유의적으로 감소
  Serum cholesterol level vs vehicle group (Fig. 6): 유의적으로 감소
글루카곤 수용체(GCGR)
  EC50: 47 nM
